target: T1, human receptor TRPM8 (Homo sapiens, UniProt Q7Z2W7); assay: Assay on TRPM8 modulators: Ca2+-sensitive dye (Fluo-4) fluorescence in HEK293 cells stably transfected with human TRPM8; format: cell-based; conditions: tetracycline-induced, Fluo-4AM, agonist mode, triplicate, test concentrations 0.1-200 μM
T1 construct: expressed in transfected cells
Protocol: In this connection, “standard conditions” is understood as meaning an activity test carried out with HEK293 cells which have been transformed with human TRPM8 and loaded with calcium-sensitive dye (such as e.g. Fluo-4AM, i.e. fluo-4-acetoxymethyl ester), subsequent addition of the test compound and detection of the color change, the experimental procedure taking place at 37° C.; as described e.g. example 3 below, or in Behrendt et al. (2004) loc. cit.).
As test cell system, HEK293 cell line stably transfected with the human TRPM8 DNA (cf. above plasmid pind-M8) are produced. Preference here is given to HEK293 which offers the option, via the introduced plasmid, of inducing the TRPM8 expression by means of tetracycline.
The agonization or antagonization of the receptor can be quantified by means of a Ca^2+-sensitive dye (e.g. FURA, Fluo-4 etc.). On their own, agonists bring about an increase in the Ca^2+ signal; antagonists bring about, in the presence of e.g. menthol, a reduction in the Ca^2+ signal (in each case detected via the dye Fluo-4, which has different fluorescent properties as the result of Ca^2+ ). • a) Test Procedure:
Firstly, a fresh culture of transformed HEK cells is prepared in a manner known per se in cell culture flasks. The test cells HEK293-TRPM8 are detached from the cell culture flasks by means of trypsin and 40 000 cells/well are sown out with 100 μl of medium in 96-well plates (Greiner # 655948 poly-D-lysine-coated). To induce the receptor TRPM8, tetracycline is added to the growth medium (DMEM/HG, 10% FCS tetracycline-free, 4 mM L-glutamine, 15 μg/ml blasticidin, 100 μg/ml hygromycin B, 1 μg/ml tetracycline). On the following day, the cells are loaded with Fluo-4AM dye and the test is carried out. For this, the procedure is as follows: • addition of in each case 100 μl/well of dye solution Ca-4 kit (RB 141, Molecular Devices) to in each case 100 μl of medium (DMEM/HG, 10% FCS tetracycline-free, 4 mM L-glutamine, 15 μg/ml blasticidin, 100 μg/ml hygromycin B, 1 μg/ml tetracycline) • incubation in the hatching cabinet, 30 minutes/37° C./5% CO2, 30 minutes/RT • preparation of the test substances (various concentrations in 200 μl of HBSS buffer), and also of positive controls (various concentrations of menthol, icilin and ionomycin in 200 μl of HBSS buffer) and negative controls (only 200 μl of HBSS buffer) • addition of the test substances in amounts of 50 μl/well and measurement of the change in fluorescence (e.g. in the assay instrument FLIPR, Molecular Devices or NovoStar, BMG) at 485 nm excitation, 520 nm emission, and evaluation of the effectiveness of the various substances/concentrations and determination of the EC50 values.
The test substances are used in the assay in triplicate in concentrations of 0.1-200 μM. Normally, the compounds are kept ready in DMSO solutions and are diluted down to a maximum DMSO concentration of 2% for the assay. • b) Test Result

T1 sequence (Q7Z2W7 whole entry): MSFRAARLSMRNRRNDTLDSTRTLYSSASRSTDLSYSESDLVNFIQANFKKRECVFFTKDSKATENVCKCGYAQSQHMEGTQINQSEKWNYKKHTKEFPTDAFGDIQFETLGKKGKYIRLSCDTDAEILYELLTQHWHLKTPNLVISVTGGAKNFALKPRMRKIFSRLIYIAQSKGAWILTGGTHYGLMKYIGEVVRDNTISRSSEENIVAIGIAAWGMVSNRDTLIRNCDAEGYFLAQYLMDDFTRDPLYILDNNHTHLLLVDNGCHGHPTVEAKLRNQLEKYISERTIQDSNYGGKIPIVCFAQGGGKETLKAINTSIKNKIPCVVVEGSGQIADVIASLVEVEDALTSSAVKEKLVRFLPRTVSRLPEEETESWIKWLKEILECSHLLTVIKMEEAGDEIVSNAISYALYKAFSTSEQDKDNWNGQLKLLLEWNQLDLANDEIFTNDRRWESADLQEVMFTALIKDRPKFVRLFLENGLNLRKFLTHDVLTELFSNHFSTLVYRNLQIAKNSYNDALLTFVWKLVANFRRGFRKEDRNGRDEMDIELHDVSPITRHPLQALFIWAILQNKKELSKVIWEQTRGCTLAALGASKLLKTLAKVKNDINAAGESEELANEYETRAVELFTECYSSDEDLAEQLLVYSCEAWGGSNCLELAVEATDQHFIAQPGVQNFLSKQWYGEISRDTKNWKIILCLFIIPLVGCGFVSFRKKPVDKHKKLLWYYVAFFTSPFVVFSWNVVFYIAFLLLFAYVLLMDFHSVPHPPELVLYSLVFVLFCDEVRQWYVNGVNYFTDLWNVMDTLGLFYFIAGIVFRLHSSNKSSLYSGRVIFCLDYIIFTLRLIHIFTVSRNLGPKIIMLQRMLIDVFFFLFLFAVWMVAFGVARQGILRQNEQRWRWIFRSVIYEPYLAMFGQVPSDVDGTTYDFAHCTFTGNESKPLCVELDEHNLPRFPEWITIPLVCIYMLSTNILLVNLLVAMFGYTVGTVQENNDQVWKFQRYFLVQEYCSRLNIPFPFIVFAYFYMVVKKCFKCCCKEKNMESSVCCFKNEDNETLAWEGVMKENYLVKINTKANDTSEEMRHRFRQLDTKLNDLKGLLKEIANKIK

| SMILES | EC50 [µM] |
| --- | --- |
| Cc1[nH]c(SC(C)C(=O)Nc2cccc(C#N)c2)nc1Cc1ccccc1 (stereo not shown) [Compound 8] | 5 |
| O=C(Nc1cccc2ccccc12)N(Cc1ccccc1)c1ccccc1 [Compound 11] | 10 |
| CC1(C)CC2CC(C)(CN2/C=N/c2sc3c(c2C#N)CCCCC3)C1 (stereo not shown) [Compound 10] | 10 |
| C=C1C2(C(=O)NCCc3ccccc3)CCC(C2)C1(C)C (stereo not shown) [Compound 19] | 100 |
| CC1(C)CC(=O)C2=C(C1)N1CCc3ccccc3C1CC21SCCS1 (stereo not shown) [Compound 2] | 2 |
| CC1=C/C(=N\NC(=O)CCN2CCN(c3ccccc3)CC2)CC1 [Compound 18] | 100 |
| COc1cnc(-c2ccccn2)nc1NC(C)C [Compound 3] | 2 |
| O=C1CN(C(=O)c2ccccc2)c2ccc(C(F)(F)F)cc2N1 [Compound 9] | 10 |
| O=C(Nc1ccc([N+](=O)[O-])cc1)Nc1ccccc1N1CCCCC1 [Compound 6] | 3.5 |
| C=CCn1c(C)cc(C(=O)CSc2nc(C)cc(C(F)(F)F)c2C#N)c1C [Compound 16] | 25 |
| CC(NCc1ccc(OC(F)F)cc1)c1ccc2c(c1)CCCC2 (stereo not shown) [Compound 13] | 10 |
| CCCCCCNC(=O)N(Cc1ccccc1)c1ccccc1 [Compound 7] | 4 |
| O=C(COc1ccc2c(c1)OCO2)N(c1ccccc1)C1CCCCC1 [Compound 4] | 2.5 |
| Cn1nc(C(F)(F)F)cc1Oc1cc(C2OCCO2)cc(Cl)n1 [Compound 17] | 50 |
| CCOC(=O)C1CCN(Cc2cc(C(C)C)c(O)c(C(C)C)c2)CC1 [Compound 14] | 20 |
| O=C(/C=C/c1ccc2c(c1)OCO2)N(c1ccccn1)C1CCCCC1 [Compound 5] | 2.5 |
| CC1OC(=O)C2=C1N1CCc3ccccc3C1CC21SCCS1 (stereo not shown) [Compound 1] | 0.4 |
| COc1ccc(C(=O)Nc2sc3c(c2CN(C)C)CCCC3)cc1 [Compound 12] | 10 |
| Cc1ccc2c(C)c(C(=O)N(Cc3ccco3)C3CCS(=O)(=O)C3)oc2c1 (stereo not shown) [Compound 15] | 20 |

From patent US9346823B2, “Detection and use of low molecular-weight modulators of the cold-menthol receptor TRPM8” (BASF SE, priority 2008, dated 2016)
